Reference: patent publication US9352015B2, “Antimicrobial peptides” (priority 2009, dated 2016)
In brackets after ≈: the same amount, converted by molar mass. Several values for one entry are separate records, joined by “and”; a condition that tells them apart may be missing. Identical values can stand only once. Like-named read-outs stand apart in the source and are kept apart here.

What was measured:
[1] = system: Methicillin Resistant Staphylococcus aureus (MRSA) and Staphylococcus aureus; assay type: cell-based
Protocol: (§1) Minimal inhibitory concentrations (MICs) are determined using a standard microtiter dilution method, with 3 sets of determinations, in LB (Luria-Bertani) no-salt medium (10 g of tryptone and 5 g of yeast extract per liter). In some cases, Mueller Hinton (MH) medium or Brain Heart Infusion (BHI) medium is used.
(§2) Briefly, cells were grown overnight at 37° C. in LB and diluted in the same medium. Serial dilutions of the peptides are added to the microtiter plates in a volume of 100 μl followed by 10 μl of bacteria to give a final inoculum of 5×10^5 colony-forming units/ml. Plates are incubated at 37° C. for 24 hours and MICs determined as the lowest peptide concentration that inhibited growth. Alternatively, minimal inhibitory concentrations are determined using a standard microtiter dilution method in a Mueller-Hinton (MH) medium. Briefly, cells are grown overnight at 37° C. in MH broth and diluted in the same medium. In some cases, serial dilutions of the peptides are added to the microtiter plates in a volume of 100 μl followed by 10 μl of bacteria to give a final inoculum of 1×10^5 colony-forming units/ml. Plates are incubated at 37° C. for 24 hours and MICs are determined as the lowest peptide concentration that inhibited growth.
Identification of Antimicrobial Peptides for Gram-positive Bacteria. In a manner similar to testing against gram-negative bacteria, experiments were carried out to screen the 14 peptides used to identify antimicrobial peptides with significant activity against A. baumanii shown above against 20 different clinical isolates of Methicillin Resistant Staphylococcus aureus (MRSA) and Staphylococcus aureus.

[2] = Hemolytic activity against human erythrocytes (HC50 / MHC, microtiter dilution); assay type: cell-based; conditions: human, 1% human erythrocytes, pH 7.4
Protocol: Hemoglobin release was determined spectrophotometrically at 570 nm. The hemolytic activity was determined as the peptide concentration that caused 50% hemolysis of erythrocytes after 18 h (HC50). […] HC50 was determined by a plot of peptide concentration versus percent lysis.

Acinetobacter baumannii = assay type: cell-based; conditions: for Acinetobacter baumannii MICGM: geometric mean, 11 different isolates, 24 hours at 37° C.
Protocol: as §1, §2
The biological activities of these six peptide analogs was determined against 11 clinical isolated of Acinetobacter baumannii (Table 9). Please note that the activities are reported in micromolar rather than microgram/ml. This allows a direct comparison on a molar basis with the effectiveness of molecules of different molecular weights whether peptides disclosed herein or antibiotics which in general are smaller in molecular mass. […] These are the highest antimicrobial activities observed in studies of antimicrobial peptides derived by modifying the peptide sequence of SEQ ID NO:24 (D1). D22 has the best hemolytic activity of the six analogs (D17-D22) and a therapeutic index of […] compared to […] for D1 (Table 9). D22 has no apparent advantage over D1 as determined in these experiments.

Pseudomonas aeruginosa = conditions: for Pseudomonas aeruginosa MICGM: geometric mean, 6 different isolates, 24 hours at 37° C.; for MIC PAO 1: 37° C., 24 h, strain PAO1; for MIC GM (geometric mean of the MIC values): six P. aeruginosa strains; for MIC CP 204: strain CP204; for MIC M 2: strain M2; for MIC PA 14: strain PA14; for MIC PAK: strain PAK; for MIC WR 5: strain WR5
[3] = RP-HPLC retention as measure of overall peptide hydrophobicity; assay type: physicochemical; conditions: for Change in hydrophobicity (retention time) relative to PVL: 80° C., polar face substitution
Protocol: Crude and purified peptides were analyzed on an Agilent 1100 series liquid chromatograph (Little Falls, Del.). Runs were performed on a Zorbax 300 SB-C8 column (150×2.1 mm I.D.; 5 μm particle size, 300 Å pore size) from Agilent Technologies using linear AB gradient (1% acetonitrile/min) and a flow rate of 0.25 ml/min, where eluant A was 0.2% aqueous TFA, pH 2 and eluant B was 0.2% TFA in acetonitrile.

[4] = RP-HPLC temperature profiling (peptide self-association parameter PA); assay type: physicochemical; conditions: enantiomer pairs of V681 analogs, 5° C. to 80° C., relative to peptide C
Protocol: Temperature profiling analyses were performed on the same column in 3° C. increments, from 5° C. to 80° C., using a linear AB gradient of 0.5% acetonitrile/min, as described previously (30, 53, 92, 93).
Peptide self-association (i.e., the ability to oligomerize/dimerize) in aqueous solution is a very important parameter for antimicrobial activity (53, 92, 93). Without wishing to be bound by any particular theory, the present inventors postulated that monomeric random-coil antimicrobial peptides are best suited to pass through the capsule and cell wall of microorganisms prior to penetration into the cytoplasmic membrane, induction of α-helical structure and disruption of membrane structure to kill target cells (93). Thus, if the self-association ability of a peptide in aqueous media is too strong (e.g., forming stable folded dimers through interaction of their non-polar faces) this could decrease the ability of the peptide to dissociate to monomer, in addition oligomerization of the peptide can prevent it from effectively passing through the capsule and cell wall to reach the membrane. The ability of the peptides in the present study to self-associate was determined by the technique of RP-HPLC temperature profiling at pH 2 (29, 30, 38). The reason pH 2 is used to determine self-association of cationic AMPs is that highly positively charged peptides are frequently not eluted from reversed-phase columns at pH 7 due to non-specific binding to negatively charged silanols on the column matrix. This is not a problem at pH 2 since the silanols are protonated (i.e., neutral) and non-specific electrostatic interactions are eliminated. At pH 2, the interactions between the peptide and the reversed-phase matrix involve ideal retention behavior, i.e., only hydrophobic interactions between the preferred binding domain (nonpolar face) of the amphipathic molecule and the hydrophobic surface of the column matrix are present (39). […] Control peptide C is a monomeric random coil peptide in both aqueous and hydrophobic media; thus, its linear decrease in peptide retention behavior with increasing temperature within the range of 5° C. to 80° C. represents only the general effects of temperature due to greater solute diffusivity and enhanced mass transfer between the stationary and mobile phase at higher temperatures (55). To allow for these general temperature effects, the data for the control peptide was subtracted from each temperature profile as shown in FIG. 2B. Thus, the peptide self-association parameter, PA, represents the maximum change in peptide retention time relative to the random coil peptide C. Note that the higher the PA value, the greater the self-association.

CC[C@@H](C)[C@@H](NC(=O)[C@@H](CC(C)C)NC(=O)[C@@H](CCCCN)NC(=O)[C@@H](CC(C)C)NC(=O)[C@@H](CC(C)C)NC(=O)[C@H](NC(=O)[C@@H](CCCCN)NC(=O)[C@@H](CC(C)C)NC(=O)[C@@H](CCCCN)NC(=O)[C@@H](CCCCN)NC(=O)[C@@H](CCCCN)NC(=O)[C@@H](CCCCN)NC(=O)[C@@H](CC(C)C)NC(=O)[C@@H](CCCCN)NC(=O)[C@@H](CO)NC(=O)[C@@H](Cc1ccccc1)NC(=O)[C@H](NC(=O)[C@@H](CCCCN)NC(=O)[C@@H](CC(C)C)NC(=O)[C@@H](Cc1ccccc1)NC(=O)[C@@H](CO)NC(=O)[C@@H](CCCCN)NC(=O)[C@@H](Cc1c[nH]c2ccccc12)NC(=O)[C@@H](CCCCN)NC(C)=O)[C@H](C)O)[C@H](C)O)C(=O)N[C@H](CO)C(=O)N[C@H](CCCCN)C(N)=O [Peptide D12, Ac-KWKSFLKTFSKLKKKKLKTLLKLISK-amide]
MIC GM (geometric mean) [1]: 5.2 µM (≈ 16.7 µg/mL)
HC50 at 18 h [2]: 18.3 µM
MIC GM (geometric mean) (Acinetobacter baumannii): 1.9 µM (≈ 6.09 µg/mL)
Acinetobacter baumannii MICGM (Acinetobacter baumannii): 1.9 µM
Pseudomonas aeruginosa MICGM (Pseudomonas aeruginosa): 3.9 µM

CC[C@@H](C)[C@@H](NC(=O)[C@@H](CC(C)C)NC(=O)[C@@H](CCCCN)NC(=O)[C@@H](CC(C)C)NC(=O)[C@@H](CC(C)C)NC(=O)[C@H](NC(=O)[C@@H](Cc1c[nH]cn1)NC(=O)[C@@H](CC(C)C)NC(=O)[C@@H](CCCCN)NC(=O)[C@H](NC(=O)[C@@H](CCCCN)NC(=O)[C@@H](CCCCN)NC(=O)[C@@H](CC(C)C)NC(=O)[C@@H](CO)NC(=O)[C@@H](CCCCN)NC(=O)[C@@H](Cc1ccccc1)NC(=O)[C@H](NC(=O)[C@@H](CCCCN)NC(=O)[C@@H](CC(C)C)NC(=O)[C@@H](Cc1ccccc1)NC(=O)[C@@H](CO)NC(=O)[C@@H](CCCCN)NC(=O)[C@@H](Cc1c[nH]c2ccccc12)NC(=O)[C@@H](CCCCN)NC(C)=O)[C@H](C)O)[C@H](C)O)[C@H](C)O)C(=O)N[C@H](CO)C(=O)N[C@H](CO)C(N)=O [Peptide D5, Ac-KWKSFLKTFKSLKKTKLHTLLKLISS-amide]
Hydrophobicity (retention time in RP-HPLC) ([3]; pH 2, room temperature): 80.44 min
MIC GM (geometric mean) [1]: 5.4 µM (≈ 17 µg/mL)
HC50 at 18 h [2]: 47 µg/mL and 14.9 µM
MIC GM (geometric mean) (Acinetobacter baumannii): 1.7 µM (≈ 5.35 µg/mL)
Acinetobacter baumannii MICGM (Acinetobacter baumannii): 1.7 µM
MIC PAO 1 (Pseudomonas aeruginosa; Brain Heart Infusion medium): 31.3 µg/mL (≈ 9.95 µM)
MIC GM (geometric mean of the MIC values) (Pseudomonas aeruginosa; Brain Heart Infusion medium): 22.1 µg/mL
MIC CP 204 (Pseudomonas aeruginosa; Brain Heart Infusion medium): 31.3 µg/mL (≈ 9.95 µM)
MIC M 2 (Pseudomonas aeruginosa; Brain Heart Infusion medium): 15.6 µg/mL (≈ 4.96 µM)
MIC PA 14 (Pseudomonas aeruginosa; Brain Heart Infusion medium): 15.6 µg/mL (≈ 4.96 µM)
MIC PAK (Pseudomonas aeruginosa; Brain Heart Infusion medium): 31.3 µg/mL (≈ 9.95 µM)
MIC WR 5 (Pseudomonas aeruginosa; Brain Heart Infusion medium): 15.6 µg/mL (≈ 4.96 µM)
MIC PAO 1 (Pseudomonas aeruginosa; Mueller Hinton medium): 7.8 µg/mL (≈ 2.48 µM)
MIC GM (geometric mean of the MIC values) (Pseudomonas aeruginosa; Mueller Hinton medium): 11.0 µg/mL
MIC CP 204 (Pseudomonas aeruginosa; Mueller Hinton medium): 15.6 µg/mL (≈ 4.96 µM)
MIC M 2 (Pseudomonas aeruginosa; Mueller Hinton medium): 7.8 µg/mL (≈ 2.48 µM)
MIC PA 14 (Pseudomonas aeruginosa; Mueller Hinton medium): 7.8 µg/mL (≈ 2.48 µM)
MIC PAK (Pseudomonas aeruginosa; Mueller Hinton medium): 15.6 µg/mL (≈ 4.96 µM)
MIC WR 5 (Pseudomonas aeruginosa; Mueller Hinton medium): 15.6 µg/mL (≈ 4.96 µM)
Pseudomonas aeruginosa MICGM (Pseudomonas aeruginosa): 3.5 µM

PAL: V681 with L-Ala at position 11, SEQ ID NO:14 (KWKSFLKTFKAAVKTVLHTALKAISS)
Change in hydrophobicity (retention time) relative to PVL [3]: +0.45 min

D-V681: D-enantiomer of V681 (KWKSFLKTFKSAVKTVLHTALKAISS; all D-amino acids)
PA (peptide self-association parameter) [4]: 7.2

CC[C@@H](C)[C@@H](NC(=O)[C@@H](C)NC(=O)[C@@H](CCCCN)NC(=O)[C@@H](CC(C)C)NC(=O)[C@@H](CC(C)C)NC(=O)[C@H](NC(=O)[C@@H](CCCCN)NC(=O)[C@@H](CC(C)C)NC(=O)[C@@H](CCCCN)NC(=O)[C@@H](CCCCN)NC(=O)[C@@H](CCCCN)NC(=O)[C@@H](CCCCN)NC(=O)[C@@H](CC(C)C)NC(=O)[C@@H](CCCCN)NC(=O)[C@@H](CO)NC(=O)[C@@H](Cc1ccccc1)NC(=O)[C@H](NC(=O)[C@@H](CCCCN)NC(=O)[C@@H](CC(C)C)NC(=O)[C@@H](Cc1ccccc1)NC(=O)[C@@H](CO)NC(=O)[C@@H](CCCCN)NC(=O)[C@@H](Cc1c[nH]c2ccccc12)NC(=O)[C@@H](CCCCN)NC(C)=O)[C@H](C)O)[C@H](C)O)C(=O)N[C@H](CO)C(=O)N[C@H](CCCCN)C(N)=O [Peptide D13, Ac-KWKSFLKTFSKLKKKKLKTLLKAISK-amide]
MIC GM (geometric mean) [1]: 8.6 µM (≈ 27.2 µg/mL)
HC50 at 18 h [2]: 106 µM
MIC GM (geometric mean) (Acinetobacter baumannii): 1.0 µM (≈ 3.16 µg/mL)
Acinetobacter baumannii MICGM (Acinetobacter baumannii): 1 µM
Pseudomonas aeruginosa MICGM (Pseudomonas aeruginosa): 2.5 µM

D-NAL: enantiomer of NAD, SEQ ID NO:25 (KWKSFLKTFKSAAKTVLHTALKAISS; not fully specified; D-amino acids)
PA (peptide self-association parameter) [4]: 4.1

PKL: V681 with L-Lys at position 11, SEQ ID NO:17 (KWKSFLKTFKKAVKTVLHTALKAISS)
Change in hydrophobicity (retention time) relative to PVL [3]: -2.29 min
